Experimental data reported in paper PMC11022890 (Drug Metabolism and Disposition, 2021).

Tests used:
UGT1A9 [1] = biological target: T1, UGT1A9 (Homo sapiens, UniProt O60656); assay: Inhibition of acetaminophen glucuronidation in rUGT1A9 microsomes; type: in vitro ADME; settings: IC50, probe substrate acetaminophen
T1 sequence (O60656 26-530): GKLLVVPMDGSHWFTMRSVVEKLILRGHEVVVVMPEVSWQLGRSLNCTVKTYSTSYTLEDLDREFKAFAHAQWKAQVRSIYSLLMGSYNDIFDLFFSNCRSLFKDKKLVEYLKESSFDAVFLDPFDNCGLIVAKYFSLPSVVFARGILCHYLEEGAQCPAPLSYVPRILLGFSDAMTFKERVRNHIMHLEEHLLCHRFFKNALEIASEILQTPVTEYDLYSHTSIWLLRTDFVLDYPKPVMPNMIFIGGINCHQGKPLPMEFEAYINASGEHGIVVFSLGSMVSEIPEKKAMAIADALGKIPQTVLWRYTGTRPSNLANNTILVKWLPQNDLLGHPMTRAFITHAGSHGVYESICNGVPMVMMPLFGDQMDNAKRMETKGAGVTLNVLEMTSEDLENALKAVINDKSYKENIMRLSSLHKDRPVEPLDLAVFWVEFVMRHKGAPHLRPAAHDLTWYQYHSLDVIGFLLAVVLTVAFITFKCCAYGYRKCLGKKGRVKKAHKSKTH

UGT1A4 = biological target: T2, UGT1A4 (Homo sapiens, UniProt P22310); assay: Screening: inhibition of trifluoperazine glucuronidation in rUGT1A4 microsomes; type: in vitro ADME; settings: 10 or 100 µM
T2 sequence (P22310 29-534): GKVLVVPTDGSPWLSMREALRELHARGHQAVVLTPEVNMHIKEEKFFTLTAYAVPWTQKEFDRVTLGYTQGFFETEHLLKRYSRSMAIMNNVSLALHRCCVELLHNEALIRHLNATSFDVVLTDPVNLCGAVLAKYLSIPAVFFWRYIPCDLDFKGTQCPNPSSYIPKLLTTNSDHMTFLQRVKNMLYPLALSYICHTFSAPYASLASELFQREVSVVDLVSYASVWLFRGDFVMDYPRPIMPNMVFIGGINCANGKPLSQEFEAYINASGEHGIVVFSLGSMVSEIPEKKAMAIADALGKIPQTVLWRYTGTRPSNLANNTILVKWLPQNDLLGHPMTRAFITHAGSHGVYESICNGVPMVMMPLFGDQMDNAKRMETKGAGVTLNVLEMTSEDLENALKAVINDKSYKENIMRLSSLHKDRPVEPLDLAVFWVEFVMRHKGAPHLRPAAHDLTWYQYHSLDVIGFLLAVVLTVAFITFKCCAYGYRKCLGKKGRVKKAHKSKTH

UGT1A1 = biological target: T3, UGT1A1 (Homo sapiens, UniProt P22309); assay: Screening: inhibition of β-estradiol glucuronidation in rUGT1A1 microsomes; type: in vitro ADME; settings: 10 or 100 µM
T3 sequence (P22309 26-533): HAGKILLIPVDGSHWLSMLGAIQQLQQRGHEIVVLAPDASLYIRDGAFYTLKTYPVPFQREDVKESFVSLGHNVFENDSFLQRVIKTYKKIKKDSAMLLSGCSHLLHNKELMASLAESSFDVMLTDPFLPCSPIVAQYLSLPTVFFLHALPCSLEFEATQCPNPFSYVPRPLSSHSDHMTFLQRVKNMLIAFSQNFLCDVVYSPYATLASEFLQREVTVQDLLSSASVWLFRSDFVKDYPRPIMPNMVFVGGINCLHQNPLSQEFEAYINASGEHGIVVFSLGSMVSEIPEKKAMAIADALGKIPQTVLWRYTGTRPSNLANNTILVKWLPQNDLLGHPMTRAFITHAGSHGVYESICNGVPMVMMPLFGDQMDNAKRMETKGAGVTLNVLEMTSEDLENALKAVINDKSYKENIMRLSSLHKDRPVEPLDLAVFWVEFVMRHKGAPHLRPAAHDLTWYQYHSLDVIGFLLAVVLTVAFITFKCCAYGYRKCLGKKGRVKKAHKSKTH

UGT1A9 [2] = biological target: T1, UGT1A9; assay: in vitro; settings: both, HLM
UGT2B15 = biological target: T4, UGT2B15 (Homo sapiens, UniProt P54855); assay: Screening: inhibition of oxazepam glucuronidation in rUGT2B15 microsomes; type: in vitro ADME; settings: 10 or 100 µM
T4 sequence (P54855 24-530): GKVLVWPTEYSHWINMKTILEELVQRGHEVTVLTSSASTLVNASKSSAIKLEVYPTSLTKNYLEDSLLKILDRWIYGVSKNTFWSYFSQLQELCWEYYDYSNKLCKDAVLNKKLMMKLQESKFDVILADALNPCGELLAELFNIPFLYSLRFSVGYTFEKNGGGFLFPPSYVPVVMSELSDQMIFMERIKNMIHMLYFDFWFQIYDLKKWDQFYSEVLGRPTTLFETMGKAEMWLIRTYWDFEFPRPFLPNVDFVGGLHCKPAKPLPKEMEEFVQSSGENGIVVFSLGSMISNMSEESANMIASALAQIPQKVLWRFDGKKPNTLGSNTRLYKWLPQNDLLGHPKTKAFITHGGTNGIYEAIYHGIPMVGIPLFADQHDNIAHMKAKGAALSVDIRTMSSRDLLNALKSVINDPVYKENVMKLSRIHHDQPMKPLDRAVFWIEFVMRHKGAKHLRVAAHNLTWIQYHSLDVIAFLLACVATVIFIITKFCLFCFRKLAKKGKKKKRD

[3] = biological target: T5, UGT1A9 in human kidney microsomes (Homo sapiens, UniProt O60656); assay: Inhibition of propofol glucuronidation; settings: HKM
T5 sequence (O60656 26-530): T1 sequence (O60656 26-530)

UGT1A9 [4] = biological target: T1, UGT1A9; assay: Inhibition of propofol glucuronidation in rUGT1A9 microsomes; type: in vitro ADME
UGT1A9 [5] = biological target: T1, UGT1A9; assay: in vitro; settings: both, HLM; remark: listed apart in the source
[6] = biological target: T6, UGT1A9 in human liver microsomes (Homo sapiens, UniProt O60656); assay: biochemical; settings: HLM
T6 sequence (O60656 26-530): T1 sequence (O60656 26-530)

[7] = IC50, probe substrate acetaminophen
[8] = IC50,u (binding-corrected IC50), probe substrate acetaminophen
[9] = IC50,u (binding-corrected IC50), probe substrate propofol
[10] = IC50, probe substrate furosemide
[11] = IC50,u (binding-corrected IC50), probe substrate furosemide

| Structure (SMILES) | IC50 (UGT1A9 [1]) [µM] | inhibition in screening (in words) (UGT1A4) | inhibition in screening (in words) (UGT1A1) | IC50 (UGT1A9 [2]; [7]) [µM] | IC50 (UGT1A9 [2]; [8]) [µM] | inhibition in screening (in words) (UGT2B15) | IC50 ([3]; IC50, probe substrate propofol) [µM] | IC50 [3, 9] [µM] | inhibition in screening (in words) (UGT1A9 [4]; 10 or 100 µM) | IC50 (UGT1A9 [4]; IC50, probe substrate propofol) [µM] | IC50 (UGT1A9 [4]; [9]) [µM] | IC50 (UGT1A9 [5]; [10]) [µM] | IC50 (UGT1A9 [5]; [11]) [µM] | IC50 ([6]; IC50, probe substrate propofol) [µM] | IC50 [6, 9] [µM] | inhibition vs control without cannabinoid (UGT1A9 [4]; 10 µM, propofol, screening) [%] |
| --- | --- | --- | --- | --- | --- | --- | --- | --- | --- | --- | --- | --- | --- | --- | --- | --- |
| CCCCCc1cc(O)c2c(c1)OC(C)(C)c1ccc(C)cc1-2 [CBN, cannabinol] | 6.9 ± 0.54 | no significant inhibition | no significant inhibition | 34 ± 6.3 | 3.1 ± 0.58 | no significant inhibition | 7.5 ± 1.7 | 0.9 ± 0.2 | significant inhibition | 6 ± 0.75 | 0.51 ± 0.063 | 30 ± 4.5 | 2.8 ± 0.96 | 31 ± 4.1 | 2.9 ± 0.38 |  |
| C=C(C)[C@@H]1CCC(C)=C[C@H]1c1c(O)cc(CCCCC)cc1O [CBD, cannabidiol] | 1.9 ± 0.29 | no significant inhibition | no significant inhibition | 12 ± 3.2 | 0.64 ± 0.16 | no significant inhibition | 5.5 ± 0.56 | 0.34 ± 0.035 |  | 3.2 ± 0.52 | 0.12 ± 0.02 | 29 ± 4 | 1.5 ± 0.2 | 19 ± 4.6 | 1 ± 0.24 | 91 |
